PubChem BioAssay (NCI)
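Cultured in 96-well plates, cells were exposed to test compound for 48 hours across five concentrations. GI50 is the concentration that inhibits growth by half. TGI denotes the concentration required for complete inhibition of growth.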

How the values were obtained:
Test in all cases: NCI-60 cell line screen, 48 h
[1] = system: IGROV1 ovarian
[2] = system: MOLT-4 leukemia
[3] = system: UO-31 renal
[4] = system: LOX IMVI melanoma
[5] = system: SNB-75 CNS
[6] = system: MCF7 breast
[7] = system: NCI/ADR-RES ovarian
[8] = system: SNB-19 CNS
[9] = system: HT29 colon
[10] = system: CCRF-CEM leukemia
[11] = system: SK-MEL-28 melanoma
[12] = system: TK-10 renal
[13] = system: HCT-15 colon
[14] = system: SN12C renal
[15] = system: ACHN renal
[16] = system: PC-3 prostate
[17] = system: HS 578T breast
[18] = system: K-562 leukemia
[19] = system: SW-620 colon
[20] = system: OVCAR-8 ovarian
[21] = system: UACC-62 melanoma
[22] = system: BT-549 breast
[23] = system: A498 renal
[24] = system: SK-OV-3 ovarian
[25] = system: NCI-H23 lung
[26] = system: U251 CNS
[27] = system: SF-268 CNS
[28] = system: EKVX NSCLC
[29] = system: HCC-2998 colon
[30] = system: OVCAR-5 ovarian
[31] = system: RXF 393 renal
[32] = system: SK-MEL-5 melanoma
[33] = system: NCI-H460 lung
[34] = system: HOP-62 NSCLC
[35] = system: SR leukemia
[36] = system: A549 NSCLC
[37] = system: MDA-MB-231 breast
[38] = system: HOP-92 NSCLC
[39] = system: DU-145 prostate
[40] = system: NCI-H226 lung
[41] = system: SF-295 CNS
[42] = system: UACC-257 melanoma
[43] = system: NCI-H522 lung
[44] = system: CAKI-1 renal
[45] = system: MALME-3M melanoma
[46] = system: OVCAR-4 ovarian
[47] = system: M14 melanoma
[48] = system: KM12 colon
[49] = system: 786-0 renal
[50] = system: RPMI-8226 leukemia
[51] = system: SK-MEL-2 melanoma
[52] = system: OVCAR-3 ovarian
[53] = system: HL-60(TB) leukemia
[54] = system: SF-539 CNS
[55] = system: HCT-116 colon
[56] = system: MDA-MB-435
[57] = system: T-47D breast
[58] = system: COLO 205 colon

SMILES: Clc1ccc2sc(-n3ccc4ccccc43)nc2c1
- TGI [1]: > 100 µM
- TGI [2]: > 100 µM
- TGI [3]: > 100 µM
- TGI [4]: > 100 µM
- TGI [5]: > 100 µM
- TGI [6]: > 100 µM
- TGI [7]: > 100 µM
- TGI [8]: > 100 µM
- TGI [9]: > 100 µM
- TGI [10]: > 100 µM
- TGI [11]: > 100 µM
- TGI [12]: > 100 µM
- TGI [13]: > 100 µM
- TGI [14]: > 100 µM
- TGI [15]: > 100 µM
- TGI [16]: > 100 µM
- TGI [17]: > 100 µM
- TGI [18]: > 100 µM
- TGI [19]: > 100 µM
- TGI [20]: > 100 µM
- TGI [21]: > 100 µM
- TGI [22]: > 100 µM
- TGI [23]: > 100 µM
- TGI [24]: > 100 µM
- TGI [25]: > 100 µM
- TGI [26]: > 100 µM
- TGI [27]: > 100 µM
- TGI [28]: > 100 µM
- TGI [29]: > 100 µM
- TGI [30]: > 100 µM
- TGI [31]: 69.3 µM
- TGI [32]: > 100 µM
- TGI [33]: > 100 µM

SMILES: NCCCn1c2ccccc2c2c3c(c4c(c21)CCC(O)CC4)C(=O)NC3=O (configuration not stated)
- TGI [1]: 21.5 µM
- TGI [34]: 15.9 µM
- TGI [2]: 11.2 µM
- TGI [35]: 5.15 µM
- TGI [3]: 19.9 µM
- TGI [4]: 2.92 µM
- TGI [6]: 3.58 µM
- TGI [7]: 32.9 µM
- TGI [36]: 21.6 µM
- TGI [37]: 14.4 µM
- TGI [9]: 4.99 µM
- TGI [38]: 12.9 µM
- TGI [10]: 10.4 µM
- TGI [11]: 13.1 µM
- TGI [39]: 14.1 µM
- TGI [40]: 13.6 µM
- TGI [12]: 14.7 µM
- TGI [13]: 23 µM
- TGI [41]: 15.6 µM
- TGI [42]: 29.7 µM
- TGI [14]: 13.6 µM
- TGI [15]: 12.1 µM
- TGI [16]: 16.2 µM
- TGI [43]: 13.2 µM
- TGI [44]: 16.6 µM
- TGI [45]: 15.8 µM
- TGI [17]: 20.9 µM
- TGI [18]: 8.5 µM
- TGI [19]: 5.19 µM
- TGI [20]: 21.6 µM
- TGI [46]: 5.44 µM
- TGI [47]: 18.2 µM
- TGI [48]: 10.7 µM
- TGI [21]: 17.3 µM
- TGI [22]: 20.2 µM
- TGI [23]: 22.8 µM
- TGI [49]: 16.8 µM
- TGI [50]: 14.6 µM
- TGI [25]: 14.3 µM
- TGI [26]: 13.1 µM
- TGI [27]: 4.43 µM
- TGI [51]: 24.1 µM
- TGI [28]: 23.7 µM
- TGI [29]: 4.24 µM
- TGI [30]: 15.5 µM
- TGI [31]: 13.6 µM
- TGI [52]: 12.2 µM
- TGI [53]: 22 µM
- TGI [54]: 21.6 µM
- TGI [55]: 28.4 µM
- TGI [32]: 16.5 µM
- TGI [56]: 13.6 µM
- TGI [33]: 14 µM

SMILES: O=C(Nc1ccc(Cl)cc1)c1ccc(NC2=C(Cl)C(=O)N(Cc3ccccc3)C2=O)cc1
- GI50 [1]: 0.98 µM
- TGI [1]: 6.22 µM
- GI50 [34]: 14.1 µM
- TGI [34]: 27.7 µM
- GI50 [2]: 3.26 µM
- TGI [2]: 44.8 µM
- GI50 [3]: 14.7 µM
- TGI [3]: 29.8 µM
- GI50 [4]: 12.7 µM
- TGI [4]: 32.7 µM
- GI50 [5]: 20.1 µM
- TGI [5]: 52.5 µM
- GI50 [6]: 15.3 µM
- TGI [6]: 33.8 µM
- GI50 [7]: 4.14 µM
- TGI [7]: 14.8 µM
- GI50 [36]: 16.3 µM
- TGI [36]: 39.9 µM
- GI50 [8]: 23.2 µM
- TGI [8]: 76.6 µM
- GI50 [37]: 13.9 µM
- TGI [37]: 38.1 µM
- GI50 [9]: 20 µM
- TGI [9]: > 100 µM
- GI50 [38]: 9.19 µM
- TGI [38]: 25.1 µM
- GI50 [11]: 17.4 µM
- TGI [11]: 37.9 µM
- GI50 [39]: 14.4 µM
- TGI [39]: 38.6 µM
- GI50 [40]: 11.2 µM
- TGI [40]: 28.4 µM
- GI50 [13]: 24.4 µM
- TGI [13]: > 100 µM
- GI50 [41]: 5.8 µM
- TGI [41]: 19.9 µM
- GI50 [42]: 22.2 µM
- TGI [42]: 63.5 µM
- GI50 [14]: 7.67 µM
- TGI [14]: 25.1 µM
- GI50 [15]: 15.7 µM
- TGI [15]: 35.3 µM
- GI50 [16]: 11.4 µM
- TGI [16]: 27.1 µM
- GI50 [43]: 8.55 µM
- TGI [43]: 30.7 µM
- GI50 [44]: 15.3 µM
- TGI [44]: 31.5 µM
- GI50 [17]: 18.4 µM
- TGI [17]: 49.8 µM
- GI50 [18]: 3.29 µM
- TGI [18]: 48.9 µM
- GI50 [19]: 6.36 µM
- TGI [19]: > 100 µM
- GI50 [20]: 7.92 µM
- TGI [20]: 28.1 µM
- GI50 [46]: 18.3 µM
- TGI [46]: 43.4 µM
- GI50 [47]: 15.2 µM
- TGI [47]: 35.8 µM
- GI50 [48]: 21.1 µM
- TGI [48]: 56.7 µM
- GI50 [21]: 17.9 µM
- TGI [21]: 44.3 µM
- GI50 [22]: 15.3 µM
- TGI [22]: 34.2 µM
- GI50 [23]: 17.7 µM
- TGI [23]: 47.8 µM
- GI50 [49]: 10.8 µM
- TGI [49]: 24.4 µM
- GI50 [50]: 2.7 µM
- TGI [50]: 12.4 µM
- GI50 [24]: 32.9 µM
- TGI [24]: > 100 µM
- GI50 [25]: 12.9 µM
- TGI [25]: 28.6 µM
- GI50 [26]: 8.07 µM
- TGI [26]: 20.4 µM
- GI50 [27]: 17.8 µM
- TGI [27]: 50.2 µM
- GI50 [51]: 14.2 µM
- TGI [51]: 40.4 µM
- GI50 [28]: 26.7 µM
- TGI [28]: 89.5 µM
- GI50 [30]: 14.1 µM
- TGI [30]: 28.1 µM
- GI50 [57]: 20.6 µM
- TGI [57]: 67.3 µM
- GI50 [58]: 30.3 µM
- TGI [58]: > 100 µM
- GI50 [31]: 18.3 µM
- TGI [31]: 44.9 µM
- GI50 [52]: 12.6 µM
- TGI [52]: 28 µM
- GI50 [53]: 6.23 µM
- TGI [53]: > 100 µM
- GI50 [54]: 17.5 µM
- TGI [54]: 41.3 µM
- GI50 [55]: 2.41 µM
- TGI [55]: 7.59 µM
- GI50 [32]: 31.1 µM
- TGI [32]: 99.3 µM
- GI50 [56]: 12.7 µM
- TGI [56]: 33.1 µM
- GI50 [33]: 25.1 µM
- TGI [33]: > 100 µM
